# Measurements reported in patent US20240226165A1, “Methods of Producing Improved Immune Cell Populations” (Prescient Therapeutics Ltd, priority 2021, published 2024).
# “Also recorded” adds a separate entry of the source.
# What was measured:
# human CAR-T-cells [1] = assay: Mass spectrometry of cellular proteome; type: cell-based; conditions: treatment of PBMCs
# From the text: At each time point, cells were collected and washed three times with cold DPBS before cell lysis for global proteomic analysis.
# Cells were homogenised/solubilised containing protease and phosphatase inhibitor (HALT) by tip-probe sonication, quantified, normalized and reduced (dithiothreitol, DTT), alkylated (iodoacetamide), before Sera-Mag Speed Bead-based protein digestion with LysC (enzyme:substrate 1:100, Wako Pure Chemical Industries) trypsin (enzyme:substrate 1:50). […] Peptides desalted (SDB-RPS Stage-Tips), and analysed for global cellular proteome.
# Spectra acquired in data dependent acquisition on an Orbitrap Q-Exactive HF-X mass spectrometer coupled to an Easy-nLC 1200 (Thermo Fisher Scientific) ultra-high pressure liquid chromatography (UHPLC) pump. […] The most intense MS1 ions were selected for MS2 analysis, fragmented by higher-energy collisional dissociation with normalized collision energy of 33. Precursors were filtered according to charge state≥2, AGC set at 1e5 for MS/MS, with monoisotopic peak used.
# Mass spectra were pre-processed and processed using MaxQuant (1.6.14). […]
# For further data analysis, the normalized intensities were converted into log 2 ratios of the intensities over the median intensity measured for each protein across each sample group, with statistical analyses performed using Student's T-test or ANOVA (p-value<0.05 was considered significant). […]
# human CAR-T-cells [2] = assay: Flow cytometry phenotyping of human CAR-T-cells from PBMC donors; type: cell-based
# Experimental: Human PBMCs were extracted from buffy packs (Australian Red Cross Blood Service). They were activated using anti-CD3 antibody (OKT3) for 2 days before transduction for 48 hours, all in the presence of IL-2.
# Buffy coats from three donors were processed to isolate PBMCs, where 50 million PBMCs were cultured for 2 days in the presence of media containing anti-CD3 antibodies (OKT3, 1.5 μg per mL) and recombinant IL-2 (600 U/mL). […] Samples were collected either 24 or 72 hours later.
# murine CAR-T-cells = assay: Flow cytometry phenotyping of murine CAR-T-cells after manufacturing; type: cell-based, mouse
# From the text: (§1) Mouse splenocytes were activated using CD3/CD28 antibodies and cultured in the presence of recombinant IL-2 and IL-7 for 24 hrs prior to transduction with CAR-T vectors.
# (§2) Cells were stained using fluorochrome labelled antibodies against CD4, CD8, CD44, CD62L to phenotype the murine CAR-T-cells following manufacturing. Human CAR-T-cells were phenotyped using fluorochrome-conjugated antibodies against CD4, CD8, CD45RA, CD45RO, CD44, CD62L, CCR7, CD27, PD-1 and CD69. A fixable live/dead dye was used to distinguish between live or dead cells.
# Splenocytes from C57BL/6 donor mice were activated with 1 μg mL^−1 anti-CD3, 1 μg mL-1 anti-CD28 in the presence of IL-2 and 200 pg mL-1 IL-7 for 1 day then ficoll gradient treatment. Cells were transduced in plates coated with 1 μg mL of retronectin using supernatant produced from a GP+86 LXSN-anti-Her2 CAR packaging cell line. The transduced cells were then expanded in complete RPMI with the same concentration of IL-2 and IL-7 with or without 5 μM of PTX-200. Fresh IL-2 and IL-7 in complete media were added to all CAR-T-cells 2 days post-transduction.
# murine T-cells = conditions: extremely low concentrations
# From the text: as §1, §2
# MC-38-hHer2 = MC-38-hHer2 colon cancer model in hHer2 transgenic mice; type: in vivo, mouse
# Experimental: C57BL/6J wildtype (WT) and human Her2 (hHer2) transgenic mouse lines were all in bred and maintained at the Peter MacCallum Cancer Centre (Victoria, Australia). Mice between the age of 6 and 16 weeks were gender-matched and randomised into different treatment groups.
# Her2 transgenic recipients were either injected subcutaneously with 2.5×10^5 of MC38-hHer2 or 2.5×10^5 of E0771-hHer2 into the mammary fat pad with. Once the tumours become palpable and they were measured using a manual caliper and tumour area calculated in millimetres squared (mm^2, length×width). On day 6-7 post-tumour inoculation, tumour-bearing Her2+ mice were ranodmised to have an average tumour size of 20 mm^2, 20×10^6 of CAR-transduced T-cells were adoptively transferred into these recipients. 50 000 U of IL-2 was administered via intraperitoneal injection 5 times over the next 2 days. Tumour sizes were measured and monitored every 2-3 days until their tumour size exceed 120 mm^2 or until the tumour-bearing mice reached a designated experimental time point.
# [3] = Immune subsets in spleen and tumour, MC-38-hHer2 model; type: in vivo, mouse; conditions: TCN-P as adjuvant in the presence of CAR-T-cells
# From the text: Blood of mice was collected directly into EDTA-containing tube via submandibular bleeding at day 8-9 post-treatment. At the experimental endpoint, various organs including tumour, draining lymph node (dLN) and spleen were collected immediately after euthanasia. Single cell suspension from the dLN and spleen were achieved by processing these organs through a 70 μm filter. For splenocytes, red blood cells were lysed with ACK lysis buffer. Solid tumours were manually sliced and digested with DMEM containing 1 mg mL^−1 type IV collagenase and 0.02 mg mL^−1 DNAse for 30 mins at 37° C. in a rocking incubation at 120 r.p.m. Digestion was neutralised with DMEM and processed through a 70 μm filter and resuspended in either FACS buffer or complete RPMI media. […]
# Cells were blocked for 15 mins at room temperature with Fc receptor block (clone 2.4G2 of the hybridoma supernatant diluted 1:50 with FACS buffer). […] The number of target T-cell population was calculated by using: the number of input beads in the sample/bead events×events of targeted population.
smiles,measurement,setting,value
"CN1N=C(N)c2cn([C@@H]3O[C@H](COP(=O)(O)O)[C@@H](O)[C@H]3O)c3ncnc1c23 [TCN-P, triciribine 5′-monophosphate]",enrichment of proteins associated with interferon signalling and anti-viral activity,human CAR-T-cells [1],increased enrichment
same,proteins associated with metabolism and RNA processing,human CAR-T-cells [1],enriched
same,effector T (TE) cells in CD8+ CAR-T-cells,"human CAR-T-cells [2]; 24 hrs, n=3 donors, control/vehicle 8%",5%
same,"Central memory T (TCM) cells (CD45RO+ CD62L+) in CD8+ CAR-T-cells, mean","human CAR-T-cells [2]; 24 hrs, n=3 donors, control/vehicle 11%",17%
same,Central memory T (TCM) cells (CD45RO+ CD62L+) in CD8+ CAR-T-cells,"human CAR-T-cells [2]; 3 days, after 24 hour treatment, n=3, control/vehicle 9%",16%
same,effector T (TE) cells in CD8+ CAR-T-cells,"human CAR-T-cells [2]; 3 days, after 24 hour treatment, n=3, control/vehicle 35%",23%
same,"CCR7+ TCM, mean","human CAR-T-cells [2]; CD8+ CAR-T, pre-treatment, from 9%",16%
same,CCR7+ TE,"human CAR-T-cells [2]; CD8+ CAR-T, pre-treatment, from 35%",23%
same,TCM or TE phenotype of CD4+ CAR-T-cells,"human CAR-T-cells [2]; pre-treatment, 24 hrs and 3 days",did not have any effect
same,TREG proportions (CD4+CD25+FoxP3+) in CD4+ transduced CAR-T-cells,"human CAR-T-cells [2]; pre-treatment, low concentrations",reduced
same,ratio of CD4:CD8 T-cells,"murine CAR-T-cells; TCN-P conditioning during CAR-T manufacturing, prior to administration",unchanged
same,central memory CD8+ CAR-T-cells (CD44+ CD62L+),murine CAR-T-cells; TCN-P preconditioning during CAR-T manufacturing,significant enrichment
same,tolerability by transduced T-cells,murine T-cells,well-tolerated
same,"tumour control / tumour killing, tumour sizes until day 14",MC-38-hHer2; 25 mg/kg TCN-P adjuvant every 3 days following Her2-targeting CAR-T administration,significantly improved
same,median survival duration,"MC-38-hHer2; TCN-P 25 mg/Kg, 20×10^6 CAR-T-cells, control group 15 days",20 days
same,anti-tumour effect (tumour growth),"MC-38-hHer2; TCN-P alone, 5, 25 or 50 mg/Kg i.p. every 3-4 days",dosage dependent anti-tumour effect; also recorded: strong anti-tumour effect
same,reduction of intratumoral Tregs,[3],50%
